Measurements: article PMC8450354, “Codon Optimization of Insect Odorant Receptor Genes May Increase Their Stable Expression for Functional Characterization in HEK293 Cells” (Frontiers in Cellular Neuroscience, 2021)
One block for each compound: values may come before it.

What was measured:
Assay in all cases: calcium fluorescence (Fluo-4AM) assay, inducible stable HEK293 cells
Format in all cases: cell-based
ItypOR25 = molecular target: T1, ItypOR25 (Ips typographus, UniProt A0A8F3ERC7)
T1 construct: full-length, N-terminal V5 tag, codon-optimized gene; with ItypOrco
T1 sequence (A0A8F3ERC7 1-394): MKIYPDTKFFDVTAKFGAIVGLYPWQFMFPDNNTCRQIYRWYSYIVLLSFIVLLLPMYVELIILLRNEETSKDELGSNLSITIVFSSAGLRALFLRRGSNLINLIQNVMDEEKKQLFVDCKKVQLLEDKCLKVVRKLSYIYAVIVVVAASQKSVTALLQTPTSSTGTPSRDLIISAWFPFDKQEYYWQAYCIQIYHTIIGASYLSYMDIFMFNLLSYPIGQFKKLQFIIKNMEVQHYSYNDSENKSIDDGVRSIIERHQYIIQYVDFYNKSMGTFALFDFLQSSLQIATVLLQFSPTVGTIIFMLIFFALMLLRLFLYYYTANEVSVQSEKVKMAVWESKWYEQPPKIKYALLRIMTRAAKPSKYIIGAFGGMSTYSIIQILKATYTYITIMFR
T1 sequence (A0A7L8XYY7 1-480 partner): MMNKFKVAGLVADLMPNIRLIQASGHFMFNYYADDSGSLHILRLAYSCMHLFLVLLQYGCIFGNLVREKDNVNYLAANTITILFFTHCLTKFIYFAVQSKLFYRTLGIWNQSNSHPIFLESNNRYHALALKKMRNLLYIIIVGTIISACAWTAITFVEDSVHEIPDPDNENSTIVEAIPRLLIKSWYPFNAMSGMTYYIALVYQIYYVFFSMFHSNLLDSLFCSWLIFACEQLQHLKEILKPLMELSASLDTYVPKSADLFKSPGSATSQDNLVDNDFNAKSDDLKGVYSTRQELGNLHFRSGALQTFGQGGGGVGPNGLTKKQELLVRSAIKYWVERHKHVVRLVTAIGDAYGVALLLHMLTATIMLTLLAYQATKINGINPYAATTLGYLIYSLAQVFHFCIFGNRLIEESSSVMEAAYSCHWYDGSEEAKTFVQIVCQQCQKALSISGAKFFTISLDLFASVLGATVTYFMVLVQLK

ItypOR49 = molecular target: T2, ItypOR49 (Ips typographus, UniProt A0A7L8XYT4)
T2 construct: full-length, N-terminal V5 tag, codon-optimized gene; with ItypOrco
T2 sequence (A0A7L8XYT4 entry or part of it, one chain of several): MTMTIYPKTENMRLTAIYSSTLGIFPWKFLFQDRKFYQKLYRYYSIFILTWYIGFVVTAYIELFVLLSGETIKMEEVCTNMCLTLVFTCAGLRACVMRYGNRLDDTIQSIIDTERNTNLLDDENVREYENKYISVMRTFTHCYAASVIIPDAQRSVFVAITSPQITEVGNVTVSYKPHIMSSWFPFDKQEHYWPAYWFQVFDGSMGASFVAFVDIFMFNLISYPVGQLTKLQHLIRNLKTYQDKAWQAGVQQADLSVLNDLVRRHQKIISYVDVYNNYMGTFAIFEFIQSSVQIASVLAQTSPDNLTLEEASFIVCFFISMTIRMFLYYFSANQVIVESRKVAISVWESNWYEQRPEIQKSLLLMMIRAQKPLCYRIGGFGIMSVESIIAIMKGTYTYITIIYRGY

ItypOrco = molecular target: T3, ItypOrco (Ips typographus, UniProt A0A7L8XYY7)
T3 construct: full-length, N-terminal Myc tag, codon-optimized gene, expressed without an OR

EC50 (ItypOR25): ~24.5 µM
SMILES: CC1=CC[C@@H]2[C@H](C1)C2(C)C [(+)-3-carene]

EC50 (ItypOR49): 7.1 µM
SMILES: C=CC(=C)C[C@@H](O)C=C(C)C [(R)-(−)-ipsdienol]

EC50 (ItypOrco): 21.1 µM
SMILES: CCc1ccc(NC(=O)CSc2nnc(-c3cccnc3)n2CC)cc1 [VUAA1]
